The text below walks through data of patent US12377100B2 (GILEAD SCIENCES, INC., priority 2015, dated 2025).

Assay type in all cases: cell-based
Holding throughout (details): Homo sapiens, PBMC, 24 h, human PBMCs, 24 hours incubation

Assay [1] relates to IFNα. Nature of the assay: PBMC cytokine profiling assay, IFNα induction. The protocol:
(§1) Certain compounds disclosed herein we tested according to the procedure described below. Additionally, certain reference compounds were prepared and tested along with the compounds of the present disclosure.
(§2) Compounds were dissolved and stored in DMSO (Sigma-Aldrich, St. Louis, MO) at 10 mM concentration.
(§3) Cryopreserved human PBMCs isolated from healthy donors were purchased from StemCell Technologies (Vancouver, Canada). Cell culture medium used was RPMI with L-Glutamine (Mediatech, Manassas, VA) supplemented with 10% fetal bovine serum (Hyclone, GE Healthcare, Logan, UT) and Penicillin-Streptomycin (Mediatech). Human TNFα, IL12p40, and IFNα2a 384-well Assay capture plates, standards, buffers and processing reagents were obtained from MesoScale Discovery Technologies (MSD; Rockville, MD).
(§4) Cryopreserved human PBMCs (1×10e8 cells/ml) were thawed at 37° C. and resuspended in 25 mL warm cell culture medium. The cells were pelleted at 200×g (Beckman Avanti J-E) for 5 min and resuspended in 20 mL of fresh culture media. Cells were counted using a Cellometer (Nexcelcom Bioscience), adjusted to 2×10e6 cells, and incubated for 2 hours in an incubator set at 37° C., 5% CO2 to recover from cryopreservation. Compounds were serially diluted in DMSO at half-log steps to generate a 10-point dose range. Using a Bravo pipette equipped with a 384 well head (Agilent), 0.4 μL of compound was transferred to each well of a 384 well black, clear bottom plate (Greiner Bio-One, Germany) containing 30 μL of cell culture medium. Recovered PBMCs were then dispensed into the assay plate at 50 μL per well (100k cells/well) using the MicroFlow multichannel dispenser (Biotek). Final DMSO concentration was 0.5%. DMSO was used as the negative control. The plates were incubated for 24 hours at 37° C. PBMCs in the assay plate were pelleted by centrifugation (Beckman Avanti J-E) at 200×g for 5 min.
(§5) Using a Biomek FX 384 well pipetting station (Beckman), conditioned culture medium (CCM) from the assay plate was transferred to MSD capture plates customized for each cytokine. For IFNα and IL12-p40 detection, 25 μL and 20 μL of CCM were added directly to each capture plate, respectively. For TNFα detection, CCM was diluted 1:9 in fresh culture medium, and 20 μL of diluted CCM was used. Serially diluted calibration standards for each cytokine were used to generate standard curves and establish assay linearity. The plates were sealed and incubated overnight at 4° C. in a plate shaker (Titer Plate) set at 200 rpm. On the following day, antibodies specific for each cytokine were diluted 1:50 in MSD Diluent 100 antibody dilution buffer. Diluted antibodies were added to corresponding capture plates at 10 μL/well, and incubated at RT for 1-2 hrs in the shaker. The plates were washed with PBST buffer (3×, 60 μl/well) using a Biotek Multiflow plate washer. MSD Read Buffer diluted to 2× in deionized water and 35 μL/well was added via Biomek FX instrument. The plates were read immediately in a MSD6000 reader. Data were normalized to positive and negative controls in each assay plate. AC50 values represent compound concentrations at half-maximal effect based on normalized percent activation and calculated by non-linear regression using Pipeline Pilot software (Accelrys, San Diego, CA).

The subject of assay [2] is IL12p40. Put plainly: PBMC cytokine profiling assay, IL12-p40 induction. As to the method:
as §1, §2, §3, §4, §5

The subject of assay [3] is TNFα. Put plainly: PBMC cytokine profiling assay, TNFα induction. The protocol:
as §1, §2, §3, §4, §5

In the case of `CCCCNc1nc(N)nc2cccnc12` [Example 1B, N^4-butylpyrido[3,2-d]pyrimidine-2,4-diamine], the half-maximal activity concentration (AC50) in assay [1] turned out to be 2.7 µM; in assay [2], 2 µM; in assay [3], 3.9 µM.
Take `Nc1nc(NCCO)c2ncccc2n1` [Example 12, 2-((2-aminopyrido[3,2-d]pyrimidin-4-yl)amino)ethanol]: the AC50 in assay [1], in assay [2] and in assay [3] was greater than 50 µM each time.
Regarding `CCCC[C@](C)(CN[C@@H](C)C(F)(F)F)Nc1nc(N)nc2cccnc12` [Example 118, N^4—((R)-2-methyl-1-(((S)-1,1,1-trifluoropropan-2-yl)amino)hexan-2-yl)pyrido[3,2-d]pyrimidine-2,4-diamine], the AC50 in assay [1] is greater than 50 µM; in assay [2], 9.1 µM; in assay [3], 9.3 µM.
Consider `Nc1nc(NC(CO)CO)c2ncccc2n1` [Example 17, 2-((2-aminopyrido[3,2-d]pyrimidin-4-yl)amino)propane-1,3-diol], for which the concentration at half-maximal activity (AC50) in assay [1], in assay [2] and in assay [3] was greater than 50 µM each time.
Turning to `CCCC[C@H](CO)Nc1nc(N)nc2ccccc12` [Example 47B, (R)-2-((2-aminoquinazolin-4-yl)amino)hexan-1-ol], the AC50 is greater than 50 µM in assay [1], 2 µM in assay [2] and 2.7 µM in assay [3].
Turning to `CCCC[C@@H](Nc1nc(N)nc2cccnc12)c1ncc[nH]1` [Example 55, (R)—N^4-(1-(1H-imidazol-2-yl)pentyl)pyrido[3,2-d]pyrimidine-2,4-diamine], the values for the AC50 in assay [1], in assay [2] and in assay [3] were 28.8 µM, 21.5 µM and 23.9 µM, respectively.
With `CC(C)C[C@@H](CO)Nc1nc(N)nc2cccnc12` [Example 3B, (S)-2-((2-aminopyrido[3,2-d]pyrimidin-4-yl)amino)-4-methylpentan-1-ol], the values for the AC50 in assay [1], in assay [2] and in assay [3] were 14.5 µM, 15.5 µM and 29.4 µM, respectively.
For `CCC[C@H](Nc1nc(N)nc2cccnc12)C(=O)NCCN` [Example 36, (S)—N-(2-aminoethyl)-2-((2-aminopyrido[3,2-d]pyrimidin-4-yl)amino)pentanamide] the same measures were greater than 50 µM, 10.8 µM and 21.5 µM.
For `CCCC[C@@H](Nc1nc(N)nc2cccnc12)C(=O)NCCO` [Example 54, (R)-2-((2-aminopyrido[3,2-d]pyrimidin-4-yl)amino)-N-(2-hydroxyethyl)hexanamide], the AC50 in assay [1] is greater than 50 µM; in assay [2], 42.5 µM; in assay [3], 34 µM.
The matching figures for `CCCC[C@](C)(CO)Nc1nc(N)nc2cc(N)cnc12` [Example 115, (R)-2-((2,7-diaminopyrido[3,2-d]pyrimidin-4-yl)amino)-2-methylhexan-1-ol]: 9 µM, 0.027 µM and 0.024 µM.
Regarding `CCC[C@@H](CO)Nc1nc(N)nc2cc(Br)cnc12` [Example 18F, (S)-2-((2-amino-7-bromopyrido[3,2-d]pyrimidin-4-yl)amino)pentan-1-ol], the results for the AC50 in assay [1], in assay [2] and in assay [3] were 30.6 µM, 15.2 µM and 16.1 µM, respectively.
Take `CCCC[C@](C)(CNS(C)(=O)=O)Nc1nc(N)nc2cccnc12` [Example 53, (R)—N-(2-((2-aminopyrido[3,2-d]pyrimidin-4-yl)amino)-2-methylhexyl)methanesulfonamide]: the AC50 was determined as 3.9 µM in assay [1], 0.28 µM in assay [2] and 0.26 µM in assay [3].
As for `CCCC[C@@](C)(CO)Nc1nc(N)nc2cccnc12` [Example 60, (S)-2-((2-aminopyrido[3,2-d]pyrimidin-4-yl)amino)-2-methylhexan-1-ol], the half-maximal activity concentration (AC50) was 7.9 µM in assay [1], 2.3 µM in assay [2] and 2.6 µM in assay [3].
Regarding `CCCC[C@@H](Nc1nc(N)nc2cccnc12)C(CF)NC(C)=O` (stereo partly drawn) [Example 91, N-((3R)-3-((2-aminopyrido[3,2-d]pyrimidin-4-yl)amino)-1-fluoroheptan-2-yl)acetamide], the values for the concentration at half-maximal activity (AC50) in assay [1], in assay [2] and in assay [3] were greater than 50 µM, 1.9 µM and 2 µM, respectively.
In the case of `CCC[C@@H](CO)Nc1nc(N)nc2cc(F)c(Cl)nc12` [Example 24D], the concentration at half-maximal activity (AC50) in assay [1] came out at 18.4 µM; in assay [2] it was 3.1 µM; in assay [3] it was 3.4 µM.
For `CCC[C@@H](CO)Nc1nc(N)nc2cc(F)c(C)nc12` [Example 67, (S)-2-((2-amino-7-fluoro-6-methylpyrido[3,2-d]pyrimidin-4-yl)amino)pentan-1-ol] the same measures were 23 µM, 3.9 µM and 6.3 µM.
In the case of `CCCC[C@@H](CO)Nc1nc(N)nc2cccnc12` [Example 14, (S)-2-((2-aminopyrido[3,2-d]pyrimidin-4-yl)amino)hexan-1-ol], the AC50 in assay [1] stood at 1.6 µM; in assay [2], 0.94 µM; in assay [3] it was 1.1 µM.
Consider `CCCC[C@@H](Nc1nc(N)nc2cccnc12)c1nnc[nH]1` [Example 56, (R)—N^4-(1-(4H-1,2,4-triazol-3-yl)pentyl)pyrido[3,2-d]pyrimidine-2,4-diamine], for which the concentration at half-maximal activity (AC50) in assay [1] is 1.9 µM; in assay [2], 3.4 µM; in assay [3], 3.6 µM.
Consider `CCCC[C@@H](Nc1nc(N)nc2cccnc12)C(O)CF` (single isomer, unassigned) [Example 88], for which the AC50 in assay [1] worked out at 35.6 µM; in assay [2], 0.37 µM; in assay [3] it was 0.4 µM.
In the case of `CCC[C@H](Nc1nc(N)nc2cccnc12)C(=O)NCCO` [Example 34, (S)-2-((2-aminopyrido[3,2-d]pyrimidin-4-yl)amino)-N-(2-hydroxyethyl)pentanamide], the AC50 is greater than 50 µM in assay [1], 10.9 µM in assay [2] and 12.2 µM in assay [3].
As to `CCCC[C@@H](Nc1nc(N)nc2cccnc12)[C@@H](O)C(F)(F)F` [Example 89, (2R,3R)-3-((2-aminopyrido[3,2-d]pyrimidin-4-yl)amino)-1,1,1-trifluoroheptan-2-ol], the half-maximal activity concentration (AC50) in assay [1] was greater than 50 µM; in assay [2], 1.7 µM; in assay [3] it was 2.2 µM.
For `Nc1nc(NCCCO)c2ncccc2n1` [Example 13, 3-((2-aminopyrido[3,2-d]pyrimidin-4-yl)amino)propan-1-ol], the AC50 in assay [1], in assay [2] and in assay [3] was greater than 50 µM each time.
Take `CCC[C@@H](CO)Nc1nc(N)nc2c(C)ccnc12` [Example 26E, (S)-2-((2-amino-8-methylpyrido[3,2-d]pyrimidin-4-yl)amino)pentan-1-ol]: the values for the half-maximal activity concentration (AC50) in assay [1], in assay [2] and in assay [3] were 13.5 µM, 1.7 µM and 2.3 µM, respectively.
On to `CCC[C@@H](CO)Nc1nc(N)nc2cc(C)cnc12` [Example 20, (S)-2-((2-amino-7-methylpyrido[3,2-d]pyrimidin-4-yl)amino)pentan-1-ol], for which the half-maximal activity concentration (AC50) in assay [1] came out at 5.4 µM; in assay [2], 2.8 µM; in assay [3] it was 3.2 µM.
Consider `CCC[C@H](Nc1nc(N)nc2cccnc12)C(=O)NCC(C)(C)O` [Example 35, (S)-2-((2-aminopyrido[3,2-d]pyrimidin-4-yl)amino)-N-(2-hydroxy-2-methylpropyl)pentanamide], for which the concentration at half-maximal activity (AC50) is greater than 50 µM in assay [1], 22.6 µM in assay [2] and 39.4 µM in assay [3].
For `C=Cc1cnc2c(N[C@@H](CO)CCCC)nc(N)nc2c1` [Example 70, (R)-2-((2-amino-7-vinylpyrido[3,2-d]pyrimidin-4-yl)amino)hexan-1-ol] the same measures were greater than 50 µM, 2.7 µM and 3.3 µM.
On to `CCC(F)(F)C[C@H](CO)Nc1nc(N)nc2cccnc12` [Example 79, (R)-2-((2-aminopyrido[3,2-d]pyrimidin-4-yl)amino)-4,4-difluorohexan-1-ol], for which the AC50 in assay [1] was greater than 50 µM; in assay [2], 11.5 µM; in assay [3] it was 9.1 µM.
